# Assay results reported in patent US20230167155A1, “COMPOSITIONS AND METHODS” (KING'S COLLEGE LONDON, priority 2020, published 2023).
# Tests used:
# [1] = tested on: ApoE−/− mice; conditions: 22 week old animals, daily treatment for 6 weeks, clinically relevant doses; cited from earlier work
# [2] = tested on: patients with stable atherosclerotic cardiovascular disease; conditions: addition to aspirin; cited from earlier work
# [3] = target: T1, PAR1 (Homo sapiens, UniProt P25116); set-up: host or cells: patients; conditions: patients with stable atherosclerosis; cited from earlier work
# T1 sequence (P25116 22-425): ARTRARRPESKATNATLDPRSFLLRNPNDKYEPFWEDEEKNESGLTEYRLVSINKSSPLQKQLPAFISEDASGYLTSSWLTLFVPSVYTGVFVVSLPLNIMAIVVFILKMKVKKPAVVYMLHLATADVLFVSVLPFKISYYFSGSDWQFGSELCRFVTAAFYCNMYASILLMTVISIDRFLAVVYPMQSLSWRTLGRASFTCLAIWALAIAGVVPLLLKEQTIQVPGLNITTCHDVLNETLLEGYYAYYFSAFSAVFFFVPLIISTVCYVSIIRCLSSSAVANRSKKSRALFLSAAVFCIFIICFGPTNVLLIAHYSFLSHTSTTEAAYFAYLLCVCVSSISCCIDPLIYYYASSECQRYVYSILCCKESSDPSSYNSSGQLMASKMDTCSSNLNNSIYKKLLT
# [4] = tested on: ApoE−/− mice; assay: Regression of established atheroma, weekly IV injections (Oil Red O en face, aortic root); type: in vivo, mouse
# Method: For all atherosclerosis work, male ApoE−/− mice, from the age of 6-weeks, were fed with a high fat diet (HFD) consisting 35 kcal % fat, 1.25% cholesterol, and 0.5% cholic acid (Special Diet Services, Essex UK). Aortas were transplanted 2 weeks after starting the HFD, using a sleeve anastomosis technique described previously^11. Briefly, a 5 mm of the segment of the infrarenal donor aorta, flushed with 300 μl of saline containing 50 U of heparin, was transplanted into ApoE−/− recipient abdomen aortas (N=6 per group). Blood flow was confirmed by direct inspection after removal of the clamps. Mice were fed a HFD for 6-12 weeks post-transplantation before the experiment was terminated (Suppl FIG. 1A). To assess prevention of atheroma, mice (n=6 per group) received a single injection of PTL060 or controls by tail vein, and the experiments terminated 1-3 weeks later (Suppl FIG. 1B). For regression experiments, baseline groups (n=6) were fed a HFD to the age of 22 weeks before the mice were sacrificed. Experimental or control groups (n=3-6 per group) received weekly injections by tail vein for 3-6 weeks, beginning at age of 22 weeks before the experiments were terminated when mice were 25-28 weeks old (Suppl FIG. 1C).
# Atherosclerotic lesions were evaluated as previously described^11. Simply, the entire length of the aorta was perfused with PBS, dissected using a dissecting microscope, longitudinally opened and stained with Oil Red O (ORO) solution (Sigma, UK) for 30 minutes, before being photographed with a digital camera (DSC-W320, Sony, Japan). The total aortic area and lesional area were measured by using Image J. Aortas from every animal were assessed. To assess lesions in the aortic sinus, hearts were embedded in paraffin, sectioned through the aortic root and incubated with elastin/van Gieson stain using the Accustain™ Elastin Stain kit (Sigma). Sections were examined on an Olympus U-ULH optical microscope (Olympus Optical Co. Ltd, Tokyo, Japan). Atheromatous lesional and total aortic root area was determined using Image-Pro Plus TM software version 4.0 (Media Cybernetics, Silver Spring, USA). At least three random sections were examined from each mouse in all groups.
# [5] = tested on: TNFα, IFNγ, MIF and CCL2; assay: Plasma cytokines and chemokines by ELISA; type: in vivo, mouse; conditions: HFD, weekly IV for 6 weeks, equimolar to PTL060 10 μg/g
# Method: Anticoagulated whole blood (EDTA 30 mM pH8) was separated into plasma and cells by centrifugation (14,000 g for 10 mins). Plasma TNFα, IFN-γ, MIF and CCL2 were detected using separate specific ELISA kits (R&D Systems, Abingdon, UK) according to the manufacturers' instructions. Total cholesterol, high-density lipoprotein and low-density lipoprotein were determined using kits from Cell Biolabs, and Tryglycerides with a kit from Abcam, (both Cambridge, UK) according to the manufacturer's protocol. Thrombin clotting times were measured in 3.2% trisodium citrated plasma according to the protocol of Ignjatovic^16. Briefly, 100 μl mouse plasma was incubated with 2.5 U of human thrombin in a total volume of 300 μl (Enzyme Research Laboratories (ERL), Swansea, UK) at 37° C., and the time for a clot to form was measured (n=6 per group). For some experiments plasma was further centrifuged (20,000 g for 10 mins) to minimise the presence of extracellular vesicles.
# FIG. 18: Illustrating the systemic proinflammatory state that accompanies development of atherosclerosis in ApoE^−/− mice fed a high fat diet, and the impact of PTL032 on that inflammation, compared to PTL060 and controls. Cytokines (interferon-gamma TNFalpha) and chemokines (macrophage migration inhibitory factor, MIF and CCL2) measured by ELISA of plasma samples harvested from mice at the times indicated. HFD=high fat diet. […]
# [6] = tested on: MIF; assay: Vessel wall chemokine (MIF, CCL2) expression after IV injection, immunofluorescence; type: in vivo, mouse; conditions: single IV injection, PTL060 or equimolar dose
# Method: Immunohistology of frozen cross sections were prepared and examined as previously described^11. Briefly, isolated tissues were snap-frozen and embedded in OCT compound (VWR International, Dorset, UK), sectioned at 5 μm thickness and fixed in methanol at −20° C. Frozen sections were immersed in 1% bovine serum albumin-phosphate-buffered saline (BSA-PBS) for 30 minutes and then incubated overnight at 4° C. with one or more of the following antibodies: rabbit polyclonal antibody to CD68, iNOs, CD206, TNFα, MIF, CCR7 ABCA1 (all from Abcam, Cambridge, UK), or hirudin (Biobyt, Cambridge, UK) or CCL2 (Lifespan BioScience, Inc., WA 98121, USA); goat polyclonal antibody to CD31 (Santa Cruz Biotechnology, Texas 75220, USA); rat anti-mouse CD68, CD11b (Serotec, Oxford, United Kingdom), CD31, IFNγ (BD Bioscience Pharmingen, Oxford, United Kingdom), Ly-6G (BioLegend, London, UK), IL-10 (Abcam) or biotinylated anti-HLL (RICS-2)^14; mouse anti-CCR2 (Abcam). […] Quantification of staining was achieved by expressing the area of positive staining as a ratio of the total lesion area, calculated using Image-Pro Plus TM, version 4.0. All quantification was performed by members of the team blinded to the identity of the sections. […] To detect macrophage-derived foam cells, frozen sections of aortic sinus were analysed by a combination of ORO staining and CD68 immunostaining. […]
compound,measurement,setting,value
O=C(NC[C@H]1CN(c2ccc(N3CCOCC3=O)cc2)C(=O)O1)c1ccc(Cl)s1 [rivaroxaban],atheroma burden reduced by,[1],25%
same,"deaths, strokes and myocardial infarction",[2],"fewer deaths, strokes and myocardial infarction"
CCOC(=O)N[C@@H]1CC[C@@H]2[C@@H](C1)C[C@H]1C(=O)O[C@H](C)[C@H]1[C@H]2/C=C/c1ccc(-c2cccc(F)c2)cn1 [vorapaxar],risk of myocardial infarction,[3],reduce the risk of myocardial infarction
[Myr2]-KSSKSPSKKDDKKPGDC(S—S—CH2-CH2-Phe-Cha-Cha-Arg-Lys-Pro-Asn-Asp-Lys-NH2)NH2 [PTL032],animals with atherosclerotic plaques essentially completely eliminated,"[4]; HFD 16 weeks, then PTL032 7 μg/g weekly IV for 6 weeks",4 out of the 6
same,regression of atherosclerosis in direct comparison with PTL060,"[4]; equimolar doses (PTL032 7 μg/g, PTL060 10 μg/g), weekly IV 6 weeks",considerably better regression of atherosclerosis than PTL060
same,"plasma chemokines and cytokines (IFNγ, TNFα, MIF, CCL2)",[5],"suppression of important chemokines and cytokines, almost back to levels seen in very young mice"
bivalirudin,atheroma burden after weekly injections,"[4]; HFD from age 6 to 22 weeks, then weekly IV for 6 weeks, PTL060 10 μg/g or equimolar doses of controls",developed increasing atheroma burden equivalent to that seen in saline control mice
same,suppression of vessel wall chemokine (MIF) expression,[6],not
